# Data taken from patent publication US6358701B1, “DNA molecules encoding Ctenocephalides felis glutamate gated chloride channels” (Merck & Co., Inc., priority 1997, dated 2002).
# pEC50: −log10 of the molar value. Like-named read-outs stand apart in the source and are kept apart here.
# Columns and labels:
# [1] = test system: CfGluCl-1 (C. felis GluCl channel); assay: Two microelectrode voltage clamp of Xenopus oocytes expressing CfGluCl-1; assay type: cell-based, Ctenocephalides felis; details: for ability to activate CfGluCl-1: agonists for other types of ligand-gated chloride channels
# Method: The full-length cDNA encoding CfGluCl-1 in plasmid vector pBluescript (Stratagene, LaJolla, Calif.) is linearized and capped cRNA transcripts are synthesized using appropriate oligonucleotide primers and the mMESSAGE mMACHINE in vitro RNA transcription kit (Ambion). Xenopus laevis oocytes were prepared and injected using standard methods as described (Arena et al., 1991, Mol. Pharmacol. 40: 368-374; Arena et al, 1992, Mol. Brain Res. 15: 339-348). Adult female Xenopus laevis were anesthetized with 0.17% tricaine methanesulfonate and the ovaries were surgically removed and placed in a dish consisting of (mM): NaCl 82.5, KCl 2, MgCl2 1, CaCl2 1.8, HEPES 5 adjusted to pH 7.5 with NaOH (OR-2). Ovarian lobes were broken open, rinsed several times, and gently shaken in OR-2 containing 0.2% collagenase (Sigma, Type IA) for 2-5 hours. When approximately 50% of the follicular layers were removed, Stage V and VI oocytes were selected and placed in media consisting of (mM): NaCl 86, KCl 2, MgCl2 1, CaCl2 1.8, HEPES 5, Na pyruvate 2.5, theophylline 0.5, gentamicin 0.1 adjusted to pH 7.5 with NaOH (ND-96) for […] before injection. For most experiments, oocytes were injected with 10 ng of cRNA in 50 nl of RNase free water. Control oocytes were injected with 50 nl of water. Oocytes were incubated for 1-5 days in ND-96 supplemented with […] gentamycin, 2.5 mM Na pyruvate and 0.5 mM theophylline before recording. Incubations and collagenase digestion were carried out at […].
# Voltage-clamp studies were conducted with the two microelectrode voltage clamp technique using a Dagan CA1 amplifier (Dagan Instruments, Minneapolis, Minn.). The current passing microelectrodes were filled with 0.7M KCl plus 1.7M K3-citrate and the voltage recording microelectrodes were filled with 1.0M KCl. The extracellular solution for most experiments was saline consisting of (mM): NaCl 96, BaCl2 3.5, MgCl2 0.5, CaCl2 0.1, HEPES 5, adjusted to pH 7.5 with NaOH. The extracellular chloride concentration was reduced in some experiments by equimolar replacement of NaCl with the sodium salt of the indicated anion. Experiments were conducted at 21-24° C. Data were acquired using the program Pulse and most analysis was performed with the companion program Pulsefit (Instrutech Instruments, Great Neck, N.Y.) or with Igor Pro (Wavemetrics, Lake Oswego, Oreg.). Data were filtered (fc, −3db) at 1 kHz, unless otherwise indicated.
# FIG. 5A and FIG. 5B show the activation of CfGluCl-1 by glutamate. […] The duration of exposure to glutamate is indicated by the solid bar at top. FIG. 5B shoes the concentration-response curve for glutamate. Peak outward current is plotted vs. glutamate concentration. The solid curve is the best fit to the equation I/Imax={1+(EC50/[glutamate])^n}^−1. […] Agonists for other types of ligand-gated chloride channels were also tested for the ability to activate
# Each curve represents the difference between the current measured with and without 10 μM glutamate. The voltage was ramped from −120 to +60 mV at 1 volt/second. Chloride concentration was reduced from 104 mM to 8.2 mM by equimolar substitution of NaCl by Na-methanesulfonate or Na-gluconate. Each current-voltage relationship was fit to a seventh order polynomial using non-linear least squares analysis and the reversal potential was taken as the x-intercept of this polynomial.
# A single [IVM-PO4] was tested on each oocyte. The ordinate is the maximal current induced by IVM-PO4 normalized by the peak current induced by 100 μM glutamate, a maximally effective concentration. The error bars indicate ±S.E.M. The holding potential was 0 mV for both sets of measurements. The filled circles represent data for CfGluCl-1.
# (1) I=Iivm,max/{1+(EC50/[IVM-PO4])^n}
# DmGluCl1 = DmGluCl1 (Drosophila melanogaster, UniProt Q94900); details: holding potential −80 mV; cited from earlier work
# Chain of DmGluCl1 (Q94900 23-456 S345N): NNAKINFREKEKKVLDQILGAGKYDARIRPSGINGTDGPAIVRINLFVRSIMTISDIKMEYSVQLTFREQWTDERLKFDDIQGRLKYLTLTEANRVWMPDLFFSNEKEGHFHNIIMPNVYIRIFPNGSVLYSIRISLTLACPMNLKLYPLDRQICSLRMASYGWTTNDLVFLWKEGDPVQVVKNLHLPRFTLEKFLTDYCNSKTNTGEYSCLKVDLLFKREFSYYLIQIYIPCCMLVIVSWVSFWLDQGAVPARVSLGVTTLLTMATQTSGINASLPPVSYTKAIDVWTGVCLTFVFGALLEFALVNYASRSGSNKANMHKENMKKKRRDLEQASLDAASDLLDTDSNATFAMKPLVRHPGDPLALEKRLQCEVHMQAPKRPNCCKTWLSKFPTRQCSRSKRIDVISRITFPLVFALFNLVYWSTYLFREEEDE
molecule,measurement,setting,value
NCCCC(=O)O [GABA],ability to activate CfGluCl-1,[1],inactive
CC(=O)OCC[N+](C)(C)C [acetylcholine],ability to activate CfGluCl-1,[1],inactive
N[C@@H](CCC(=O)O)C(=O)O [glutamate],pEC50,"[1]; experiment of FIG. 5B, fit to I/Imax={1+(EC50/[glutamate])^n}^−1, read-out: EC50 for activation of CfGluCl-1 (peak outward current vs. concentration)",5.03
NCC(=O)O [glycine],ability to activate CfGluCl-1,[1],inactive
NCCc1c[nH]cn1 [histamine],ability to activate CfGluCl-1,[1],inactive
NCc1cc(=O)[nH]o1 [muscimol],ability to activate CfGluCl-1,[1],inactive
ivermectin phosphate [IVM-PO4],pEC50,DmGluCl1,7.39
same,"Iivm,max on DmGluCl1",DmGluCl1,0.35
same,n (exponent of equation (1)) on DmGluCl1,DmGluCl1,1.2
same,increase in potency,[1]; 0 mV measurements vs. earlier −80 mV data,10 fold
same,agonist activity at the flea GluCl channel encoded by CfGluCl-1,[1]; FIGS. 7A and B,agonist
same,"Iivm,max (maximal current normalized by the peak current induced by 100 μM glutamate)",[1]; holding potential 0 mV,0.718
same,pEC50,"[1]; holding potential 0 mV, fit to equation (1), read-out: EC50 for activation of CfGluCl-1",8.53
